The results in this text go back to patent publication US20180179256A1 (priority 2015, published 2018).

The test system of this assay is HLA-DR. The format is cell-based, human.

“RGILKRNSSSSSTDS [5-HUMAN-B, reference compound]”: the “% Inhibition by HLA-DR blocking Ab” value was determined as 100%.
